Reference: patent US20220315554A1, “COMPOUNDS COMPRISING A […] LIGAND AND USE THEREOF” (priority 2019, published 2022)
Numbered stars: 1 amine (or outer) side, 2 acyl side, 3 side chain; on linkers, the order of the positions; unused ones are H or OH. Bridge positions count the residues as written; N and C are the ends. Square brackets hold non-standard residues; d marks the D form. Peptide text beside a SMILES is read from it. * marks the point of attachment. DOTA = O=C(O)CN1CCN(CC(=O)O)CCN(CC(=O)*)CCN(CC(=O)O)CC1; X39 = NCCOCCOCC(=O)NCCSCc1cc(C[*:1])cc(C[*:2])c1; mXylylene = c1cc(C[*:1])cc(C[*:2])c1; X41 = NCCCCCC(=O)NCCCOCCOCCOCCCN*; Suc = O=C(CCC(=O)[*:2])[*:1]; Nle = CCCC[C@H](N)C(=O)O; Hexanoyl = CCCCCC(=O)*

Columns and labels:
[1] = molecular target: T1, Human recombinant FAP (Homo sapiens, UniProt Q12884); experiment: FRET-based FAP protease activity assay; assay type: biochemical; set-up: purchased R&D systems 3715-SE; conditions: pIC50 Category (Activity), FRET substrate, 37° C.
T1 sequence (Q12884 1-760): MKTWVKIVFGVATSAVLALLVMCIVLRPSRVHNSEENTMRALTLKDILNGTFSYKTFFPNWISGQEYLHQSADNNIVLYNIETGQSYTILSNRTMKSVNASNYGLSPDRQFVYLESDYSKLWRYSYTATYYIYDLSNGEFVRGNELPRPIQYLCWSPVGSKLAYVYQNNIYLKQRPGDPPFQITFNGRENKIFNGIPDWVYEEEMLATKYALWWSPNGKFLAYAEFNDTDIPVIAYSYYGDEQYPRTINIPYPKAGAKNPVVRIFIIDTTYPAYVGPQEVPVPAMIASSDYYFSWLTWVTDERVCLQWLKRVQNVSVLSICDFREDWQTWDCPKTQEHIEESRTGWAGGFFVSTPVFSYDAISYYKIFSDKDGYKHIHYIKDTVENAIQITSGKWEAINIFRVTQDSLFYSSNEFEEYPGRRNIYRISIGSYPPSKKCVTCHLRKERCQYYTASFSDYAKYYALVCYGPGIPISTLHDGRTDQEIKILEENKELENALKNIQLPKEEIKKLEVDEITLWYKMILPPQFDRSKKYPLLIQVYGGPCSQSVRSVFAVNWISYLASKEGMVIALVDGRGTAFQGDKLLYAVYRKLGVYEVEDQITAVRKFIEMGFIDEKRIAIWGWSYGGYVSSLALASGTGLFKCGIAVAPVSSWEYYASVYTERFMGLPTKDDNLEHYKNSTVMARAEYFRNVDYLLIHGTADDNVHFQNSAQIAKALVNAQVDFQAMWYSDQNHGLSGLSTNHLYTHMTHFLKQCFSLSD

[2] = molecular target: T2, FAP-expressing human WI-38 fibroblasts (Homo sapiens, UniProt Q12884); experiment: Competitive FACS binding assay; conditions: pIC50 Category (FACS), competition with 3 nM Cy5-labeled compound, 4° C., 1 hour
T2 construct: FAP-expressing human WI-38 fibroblasts (ECACC) were cultured in EMEM; host or cells: WI-38 human fibroblasts
T2 sequence (Q12884 1-760): T1 sequence (Q12884 1-760)
Procedure: Cells were analyzed in an Attune NxT flow cytometer. […]

| Structure (SMILES) | IC50 [1] [nM] | IC50 [2] [nM] | IC50 ([1]; recombinant human FAP) [nM] | IC50 ([2]; WI-38 fibroblasts) [nM] |
| --- | --- | --- | --- | --- |
| CCCCCC(=O)N[C@H]1CSCc2cc(CSCCNC(=O)CCC(=O)NCCCOCCOCCOCCCNC(=O)CN(CCN(CCN(CC(=O)O)CC(=O)O)CC(=O)O)CC(=O)O)cc(c2)CSC[C@@H](C(=O)O)NC(=O)[C@H](Cc2ccccc2)NC(=O)[C@H](CCC(N)=O)NC(=O)[C@H]([C@@H](C)O)NC(=O)[C@@H]2CCCN2C(=O)[C@@H]2CCCN2C1=O [3BP-4352, Hex-[Cys-(tMeBn(DTPA2-Ttds-AET))-Pro-Pro-Thr-Gln-Phe-Cys]-OH] | 10 to 79.4 | 100 to 794 |  |  |
| CCCCCC(=O)N[C@H]1CSCc2cccc(c2)CSC[C@@H](C(N)=O)NC(=O)[C@H](Cc2ccccc2)NC(=O)[C@H](CCC(=O)O)NC(=O)[C@H]([C@@H](C)O)NC(=O)[C@@H]2CCCN2C(=O)[C@H](C)NC1=O [3BP-3346, Hex-[Cys(3MeBn)-Ala-Pro-Thr-Glu-Phe-Cys]-NH2] (Hexanoyl-CAPTEFC-NH2; linker 1-7 via mXylylene) |  |  | 100 to 794 | > 1000 |
| CCCCCC(=O)N[C@H]1CSCc2cc(CSCCNC(=O)CCC(=O)NCCCOCCOCCOCCCNC(=O)C(CNCCN)CNCCN)cc(c2)CSC[C@@H](C(=O)O)NC(=O)[C@H](Cc2ccccc2)NC(=O)[C@H](CCC(N)=O)NC(=O)[C@H]([C@@H](C)O)NC(=O)[C@@H]2CCCN2C(=O)[C@@H]2CCCN2C1=O [3BP-4299, Hex-[Cys-(tMeBn(N4Ac-Ttds-AET))-Pro-Pro-Thr-Gln-Phe-Cys]-OH] | < 10 | < 10 |  |  |
| CCCCCC(=O)N[C@@H]1CSCc2cc(CSCCNC(=O)CN3CCN(CC(=O)O)CCN(CC(=O)O)CCN(CC(=O)O)CC3)cc(c2)CSC[C@H](C(=O)O)NC(=O)[C@H](Cc2ccccc2)NC(=O)[C@H](CCC(N)=O)NC(=O)[C@H]([C@@H](C)O)NC(=O)[C@@H]2CCCN2C(=O)[C@@H]2CCCN2C1=O [3BP-4110, Hex-[D-Cys-(tMeBn(DOTA-AET))-Pro-Pro-Thr-Gln-Phe-D-Cys]-OH] | 10 to 79.4 | 10 to 79.4 |  |  |
| CCCCCC(=O)N[C@H]1CSCc2cc(CSCCNC(=O)CN3CCN4CCN(CC(=O)O)CCN(CC3)CC(=O)[O][Zn][O]C(=O)C4)cc(c2)CSC[C@@H](C(=O)O)NC(=O)[C@H](Cc2ccccc2)NC(=O)[C@H](CCC(N)=O)NC(=O)[C@H]([C@@H](C)O)NC(=O)[C@@H]2CCCN2C(=O)[C@@H]2CCCN2C1 [3BP-4343, Zink-Complex of Hex-[Cys(tMeBn(DOTA-AET))-Pro-Pro-Thr-Gln-Phe-Cys]-OH] | < 10 | < 10 |  |  |
| CCCCCC(=O)N[C@H]1CSCc2cc(CSCCNC(=O)COCCOCCN)cc(c2)CSC[C@@H](C(=O)N[C@@H](CC(=O)O)C(N)=O)NC(=O)[C@H](Cc2ccccc2)NC(=O)[C@H](CCC(N)=O)NC(=O)[C@H]([C@@H](C)O)NC(=O)[C@@H]2CCCN2C(=O)[C@@H]2CCCN2C1=O [3BP-4003, Hex-[Cys-(tMeBn(H-O2Oc-AET))-Pro-Pro-Thr-Gln-Phe-Cys]-Asp-NH2] (Hexanoyl-CPPTQFCD-NH2; linker 1-7 via X39) | < 10 | < 10 |  |  |
| CSCC[C@H](NC(=O)CN1CCN(CC(=O)O)CCN(CC(=O)O)CCN(CC(=O)O)CC1)C(=O)N[C@H]1CSCc2cccc(c2)CSC[C@@H](C(=O)N[C@@H](CC(=O)O)C(=O)N[C@@H](Cc2c[nH]cn2)C(=O)N[C@@H](Cc2ccccc2)C(=O)N[C@@H](CCCNC(=N)N)C(=O)N[C@@H](CC(=O)O)C(N)=O)NC(=O)[C@H](Cc2ccccc2)NC(=O)[C@H](CCC(=O)O)NC(=O)[C@H]([C@@H](C)O)NC(=O)[C@@H]2CCCN2C(=O)[C@@H]2CCCN2C1=O [3BP-3170, DOTA-Met-[Cys(3MeBn)-Pro-Pro-Thr-Glu-Phe-Cys]-Asp-His-Phe-Arg-Asp-NH2] ({DOTA}-MCPPTEFCDHFRD-NH2; linker 2-8 via mXylylene) |  |  | 100 to 794 | 100 to 794 |
| CCCCCC(=O)N[C@H]1CSCc2cc(CSCCNC(=O)CN3CCN(CC(=O)O)CCN(CC(=O)O)Cc4cccc(n4)C3)cc(c2)CSC[C@@H](C(=O)O)NC(=O)[C@H](Cc2ccccc2)NC(=O)[C@H](CCC(N)=O)NC(=O)[C@H]([C@@H](C)O)NC(=O)[C@@H]2CCCN2C(=O)[C@@H]2CCCN2C1=O [3BP-4379, Hex-[Cys-(tMeBn(PCTA-AET))-Pro-Pro-Thr-Gln-Phe-Cys]-OH] | < 10 | < 10 |  |  |
| CSCC[C@H](NC(C)=O)C(=O)N[C@H]1CSCc2cccc(c2)CSC[C@@H](C(=O)N[C@@H](CC(=O)O)C(=O)N[C@@H](Cc2c[nH]cn2)C(=O)N[C@@H](Cc2ccccc2)C(=O)N[C@@H](C)C(=O)N[C@@H](CC(=O)O)C(N)=O)NC(=O)[C@H](Cc2ccccc2)NC(=O)[C@H](CCC(=O)O)NC(=O)[C@H]([C@@H](C)O)NC(=O)[C@@H]2CCCN2C(=O)[C@@H]2CCCN2C1=O [3BP-3197, Ac-Met-[Cys(3MeBn)-Pro-Pro-Thr-Glu-Phe-Cys]-Asp-His-Phe-Ala-Asp-NH2] (Ac-MCPPTEFCDHFAD-NH2; linker 2-8 via mXylylene) |  |  | 100 to 794 | 100 to 794 |
| CSCC[C@H](NC(C)=O)C(=O)N[C@H]1CSCc2cccc(c2)CSC[C@@H](C(=O)N[C@@H](CC(=O)O)C(=O)N[C@@H](Cc2c[nH]cn2)C(=O)N[C@@H](Cc2ccccc2)C(=O)N[C@@H](CCCNC(=N)N)C(=O)N[C@@H](CC(=O)O)C(N)=O)NC(=O)[C@@H](Cc2ccccc2)NC(=O)[C@H](CCC(=O)O)NC(=O)[C@H]([C@@H](C)O)NC(=O)[C@@H]2CCCN2C(=O)[C@@H]2CCCN2C1=O [3BP-3180, Ac-Met-[Cys(3MeBn)-Pro-Pro-Thr-Glu-phe-Cys]-Asp-His-Phe-Arg-Asp-NH2] (Ac-MCPPTE[dF]CDHFRD-NH2; linker 2-8 via mXylylene) |  |  | 100 to 794 | 100 to 794 |
| CCCCCC(=O)N[C@H]1CSCc2cc(CSCCNC(=O)CN3CCN(CC(=O)O)CCN(CC(=O)O)CCN(CC(=O)O)CC3)cc(c2)CSC[C@H](C(=O)O)NC(=O)[C@H](Cc2ccccc2)NC(=O)[C@H](CCC(N)=O)NC(=O)[C@H]([C@@H](C)O)NC(=O)[C@@H]2CCCN2C(=O)[C@@H]2CCCN2C1=O [3BP-4111, Hex-[Cys-(tMeBn(DOTA-AET))-Pro-Pro-Thr-Gln-Phe-D-Cys]-OH] | 10 to 79.4 | 10 to 79.4 |  |  |
| CCCCCC[C@H](NC(=O)CCC(=O)NCCCOCCOCCOCCCNC(=O)CN1CCN(CC(=O)O)CCN(CC(=O)O)CCN(CC(=O)O)CC1)C(=O)N[C@H]1CSCc2cccc(c2)CSC[C@@H](C(=O)NCCC(=O)O)NC(=O)[C@H](Cc2ccccc2)NC(=O)[C@H](CCC(N)=O)NC(=O)[C@H]([C@@H](C)O)NC(=O)[C@@H]2CCCN2C(=O)[C@@H]2CCCN2C1=O [3BP-3400, DOTA-Ttds-Hgl-[Cys(3MeBn)-Pro-Pro-Thr-Gln-Phe-Cys]-Bal-OH] |  |  | 10 to 79.4 | > 1000 |
| CCCC[C@H](NC(=O)CCC(=O)NCCCOCCOCCOCCCNC(=O)CCCCCN)C(=O)N[C@H]1CSCc2cccc(c2)CSC[C@@H](C(=O)N[C@@H](CC(=O)O)C(N)=O)NC(=O)[C@H](Cc2ccccc2)NC(=O)[C@H](CCC(N)=O)NC(=O)[C@H]([C@@H](C)O)NC(=O)[C@@H]2CCCN2C(=O)[C@@H]2CCCN2C1=O [3BP-3980, H-Ahx-Ttds-Nle-[Cys-(3MeBn)-Pro-Pro-Thr-Gln-Phe-Cys]-Asp-NH2] ({X41-Suc}-[Nle]CPPTQFCD-NH2; linker 2-8 via mXylylene) | < 10 | < 10 |  |  |
